In patent publication US10035806B2, “Derivatized corroles and metallocorroles and their use as imaging and therapeutic agents” (CALIFORNIA INSTITUTE OF TECHNOLOGY, priority 2015, dated 2018):
Marks after values point to notes of the source that are not given here.

Assays:
[1] = system: SK-MEL-28; test: NCI60 anticancer drug screen; type: cell-based, human; settings: SK-MEL-28 (Melanoma), 10 μM, 48 h; lethality rather than inhibition
[2] = system: 60 human tumor cell lines (NCI60); test: NCI60 anticancer drug screen, whole panel; type: cell-based; settings: 10 μM, 48 h
From the text: The aminocaproate-substituted corrole Complex 3 was submitted to NCI for cytotoxic screening at a single high dose (10−5M) in a panel of 60 human tumor cell lines (NCI60). Details of the cytotoxicity assessment in the NCI anticancer drug screen have been described previously, in Monks A, et al. (1991) Feasibility of a high-flux anticancer drug screen using a diverse panel of cultured human tumor cell lines. J Natl Cancer Inst 83(11):757-766, this reference being incorporated by reference for these teachings.
In view of the promising results observed for carboxylated corroles, Complex 3 was selected for expanded cell screening to uncover additional susceptible cancer cell lines. The cytotoxic activity of Complex 3 was tested at a dose of 10^−5 M against 60 human cancer cell lines representing nine distinct tumor types in the anticancer screening program of the National Cancer Institute (NCI). The in vitro parameters for cytotoxicity, growth percent, and lethality were obtained for Complex 3 and reported as a mean graph of the percent growth of treated cells (FIG. 7). Bars in the mean graph depict the deviation of individual tumor cell lines from the overall mean value for all cells tested. Bars that project to the right of the mean represent cell lines that are more sensitive to Complex 3, whereas cell lines less sensitive to the compound display bars that project to the left. […]

[3] = system: OVCAR-3; test: MTS assay (cytotoxicity); type: cell-based, human; settings: OVCAR-3 (ovarian), 72 h exposure in the dark, mean of three experiments
From the text: Reagents were obtained from the indicated suppliers: HBSS without phenol red and trypsin-EDTA (0.25%), Invitrogen/Gibco; PBS, Mediatech; 4′,6-diamidino-2-phenylindole dihydrochloride (DAPI) and DMSO, Sigma-Aldrich; paraformaldehyde, Electron Microscopy Sciences; WGA, Alexa Fluor 488 conjugate, Invitrogen/Molecular Probes; and ProLong Gold Antifade Mountant with DAPI, Life Technologies. Human Cancer Cell Lines. Four cell lines from the NCI60 cell panel (Shoemaker RH (2006) The NCI60 human tumour cell line anticancer drug screen. Nat Rev Cancer 6(10):813-823) representing four distinct tumor types were used in this study: DU-145, prostate; MDA-MB-231, breast; SK-MEL-28, melanoma; and OVCAR-3, ovarian. Cells were grown in RPMI 1640 cell culture medium (Mediatech) containing 2 mM L-glutamine, supplemented with 10% FBS (Omega Scientific), and maintained at 37° C. under 5% CO2 in a humidified incubator.
At the time of drug treatment, stock solutions of 1-4 were diluted to 10-fold the desired final test concentrations with RPMI medium 1640. Aliquots of […] of these diluted solutions were added to the appropriate microtiter wells containing 90 μL of medium, resulting in the required final drug concentrations (eight concentrations per compound, ranging from 0.3 to 600 μM). The final concentration of DMSO in test culture was <1%. […] Following 72 h of exposure at 37° C., cell viability was determined using the MTS assay (CellTiter 96 Aqueous One Cell Proliferation Assay; Promega) according to the manufacturer's instructions. Absorbances were measured using a microplate reader (Synergy 4; Biotek Instruments) at 490 nm. Experiments were performed in triplicate and each dose-response curve represents the mean of three or more independent experiments. Spectrophotometric data were analyzed by sigmoid dose-response, nonlinear regression analysis; the IC50, Emax values, and associated SE were calculated using GraphPad Prism 6 (GraphPad Software).
The effects of bis-sulfonate, carboxylate, and aminocaproate ring substituents on gallium corrole cytotoxicities were examined using four human cancer cell lines, representing tumors of different origin selected based on previously described sensitivities.

## O=C(O)CCCCCNc1c(F)c(F)c(C2=C3C=CC4=[N+]3[Ga-]35[n]6c2ccc6C(c2c(F)c(F)c(F)c(F)c2F)=c2ccc([n]23)=C(c2c(F)c(F)c(F)c(F)c2F)c2ccc4[n]25)c(F)c1F (stereo not shown) [Complex 3]
[1]
  % lethality: 12.1** %
[2]
  activity against all NCI60 cell lines derived from nine tumor types: highly active
[2]; NCI60 panel
  average growth inhibition: 70%
[3]
  IC50: 12.7 µM
